Where only a bound is given, the exact number is not on record here.

The test system of data set [1] is Human peripheral blood mononuclear cells. Nature of the data set: Human Concanavalin-A Proliferation Assay (Con HU Assay). The format is cell-based. The following applies: Homo sapiens, PBMC, concanavalin-A stimulated human PBMC; for inhibition at 1 µM / inhibition at 10 µM / inhibition at 100 µM: 72 h, 3 days, read-out: % Inhibition of proliferation (at concentrations of 1,10, or 100 μm); for inhibition at 1 µM: concentration 1 μm (in parentheses in the cell); for inhibition at 10 µM: concentration 10 μm (in parentheses in the cell); for IC50: tritiated thymidine; for inhibition at 100 µM: concentration 100 μm (in parentheses in the cell). The gist of the method:
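Histopaque-isolated human PBMC (50,000/well) were pre-incubated 15 min with compounds, then stimulated with concanavalin-A at 2.5 μg/ml final for 3 days at 37 °C, 5% CO2. Proliferation measured by 6 h pulse with 0.5 μCi/well [3H]thymidine and beta counting.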

In the case of `O=C(Nc1ccc(-n2nc(C(F)(F)F)cc2C(F)(F)F)cc1)C1CCNCC1` [Example 125, N-[4-[3,5-bis(trifluoromethyl)-1H-pyrazol-1-yl]phenyl]-4-piperidinecarboxamide], the melting point lay in the range of 156 to 159 °C. For the same compound, the inhibition at 1 µM in data set [1] amounted to 6%.

Turning to `O=C(Nc1ccc(-n2nc(C(F)(F)F)cc2C(F)(F)F)cc1)c1cccnc1` [Example 106, N-[4-[3,5-bis(trifluoromethyl)-1H-pyrazol-1-yl]phenyl]-3-pyridinecarboxamide], the melting point fell in the range of 185 to 188 °C. Further, in data set [1], the inhibition at 10 µM was 100% and half-maximal inhibition (IC50) was put at 237 nM.

Compound `Nc1ccc(C(=O)Nc2ccc(-n3nc(C(F)(F)F)cc3C(F)(F)F)cc2)cc1` [Example 59, 4-Amino-N-[4-[3,5-bis(trifluoromethyl)-1H-pyrazol-1-yl]phenyl]benzamide] yielded a melting point of more than 240 °C. In addition, the inhibition at 1 µM in data set [1] was 54%.

As for `CSc1cc(C(F)(F)F)nn1-c1ccc(NC(=O)c2ccncc2F)cc1` [Example 320, 3-fluoro-N-(4-(5-(methylsulfanyl)-3-(trifluoromethyl)-1H-pyrazol-1-yl)phenyl)isonicotinamide], the melting point lay in the range of 142 to 143 °C. The IC50 in data set [1] was 43 nM.

For `CC(=O)N1CCC(C(=O)Nc2ccc(-n3nc(C(F)(F)F)cc3C(F)(F)F)cc2)CC1` [Example 174, 1-Acetyl-N-[4-[3,5-bis(trifluoromethyl)-1H-pyrazol-1-yl]phenyl]-4-piperidinecarboxamide], the melting point is 94 to 95 °C. Moreover, in data set [1], the inhibition at 10 µM was determined as 99% and the IC50 came to 730 nM.

Compound `O=C(/C=C/c1cccs1)Nc1ccc(-n2nc(C(F)(F)F)cc2C(F)(F)F)cc1` [Example 171, (E)-N-[4-[3,5-bis(trifluoromethyl)-1H-pyrazol-1-yl]phenyl]-3-(2-thienyl)-2-propenamide] gave a melting point of 216 to 218 °C. For the same compound, the inhibition at 1 µM in data set [1] was determined as 12%.

In turn, `O=C(Nc1ccc(-n2nc(C(F)(F)F)cc2C(F)(F)F)cc1)c1cc(F)ccc1F` [Example 211, N-[4-[3,5-bis(trifluoromethyl)-1H-pyrazol-1-yl]phenyl]-2,5-difluorobenzamide] gave a melting point of 168 to 169 °C. Further, in data set [1], the inhibition at 10 µM amounted to 98% and half-maximal inhibition (IC50) was put at 39 nM.

With `O=C(Nc1ccc(-n2nc(C(F)(F)F)cc2Cl)cc1)c1ccncc1Cl` [Example 346, 3-chloro-N-(4-(5-chloro-3-(trifluoromethyl)-1H-pyrazol-1-yl)phenyl)isonicotinamide], the melting point fell in the range of 184 to 185 °C. The compound also had an IC50 in data set [1] of 117 nM.

Turning to `O=C(Nc1ccc(-n2nc(C(F)(F)F)cc2C(F)(F)F)cc1)c1cccc(CO)c1` [Example 51, N-[4-[3,5-bis(trifluoromethyl)-1H-pyrazol-1-yl]phenyl]-3-(hydroxymethyl)benzamide], the melting point lay in the range of 160 to 162 °C. Also, in data set [1], the inhibition at 10 µM came out at 100% and the concentration for half-maximal inhibition (IC50) was found to be 778 nM.

As for `O=C(Nc1ccc(-n2nc(C(F)(F)F)cc2C(F)(F)F)cc1)Nc1ccc(Cl)cc1[N+](=O)[O-]` [Example 48, N-[4-[3,5-bis(trifluoromethyl)-1H-pyrazol-1-yl]phenyl]-N′-(4-chloro-2-nitrophenyl)urea], the melting point lay in the range of 225 to 227 °C. Besides, in data set [1], the inhibition at 1 µM turned out to be 85% and the IC50 was 468 nM.

`O=C(Nc1ccc(-n2nc(C(F)(F)F)cc2C(F)(F)F)cc1)c1csc([N+](=O)[O-])c1` [Example 257, N-[4-[3,5-bis(trifluoromethyl)-1H-pyrazol-1-yl]phenyl]-5-nitro-3-thiophenecarboxamide] yielded a melting point of 164 to 165 °C. In data set [1], the inhibition at 10 µM was 100% and the midpoint of inhibition, the IC50, lay at 387 nM.

Take `N#Cc1cc(C(F)(F)F)nn1-c1ccc(NC(=O)c2cccnc2F)cc1` [Example 306, N-(4-(5-cyano-3-(trifluoromethyl)-1H-pyrazol-1-yl)phenyl)-2-fluoronicotinamide]: the melting point was 150 to 151 °C. For the same compound, the midpoint of inhibition in data set [1], the IC50, lay at 265 nM.

`Cc1nnsc1C(=O)Nc1ccc(-n2nc(C(F)(F)F)cc2Br)cc1` [Example 335, N-(4-(5-bromo-3-(trifluoromethyl)-1H-pyrazol-1-yl)phenyl)-4-methyl-1,2,3-thiadiazole-5-carboxamide] showed a melting point of 145 to 147 °C. For the same compound, the IC50 in data set [1] came to 103 nM.

With `O=C(Nc1ccc(-n2nc(C(F)(F)F)cc2C(F)(F)F)cc1)c1ccc(Cl)nc1Cl` [Example 149, N-[4-[3,5-bis(trifluoromethyl)-1H-pyrazol-1-yl]phenyl]-2,6-dichloro-3-pyridinecarboxamide], the melting point was in the range of 115 to 117 °C. Also, in data set [1], the inhibition at 100 µM was 100% and the IC50 was found to be 336 nM.

`CC(=O)c1cc(C(F)(F)F)nn1-c1ccc(NC(=O)c2cccnc2F)cc1` [Example 315, N-(4-(5-acetyl-3-(trifluoromethyl)-1H-pyrazol-1-yl)phenyl)-2-fluoronicotinamide] showed a melting point of 188 to 189 °C. The compound further showed an IC50 in data set [1] of 320 nM.

`O=C(Nc1ccc(-n2nc(C(F)(F)F)cc2C(F)(F)F)cc1)c1cnc(Cl)c(Cl)c1` [Example 268, N-[4-[3,5-bis(trifluoromethyl)-1H-pyrazol-1-yl]phenyl]-5,6-dichloro-3-pyridinecarboxamide]: the melting point was in the range of 175 to 177 °C. Besides, in data set [1], the inhibition at 10 µM came to 100% and half-maximal inhibition (IC50) was put at 347 nM.

`CC(C)(C)OC(=O)N1CSCC1C(=O)Nc1ccc(-n2nc(C(F)(F)F)cc2C(F)(F)F)cc1` (stereo not shown) [Example 258, 1,1-Dimethylethyl 4-[[[4-[3,5-bis(trifluoromethyl)-1H-pyrazol-1-yl]phenyl]amino]carbonyl]-3-thiazolidinecarboxylate]: the melting point was 82 to 84 °C. Further, the inhibition at 1 µM in data set [1] came out at 16%.

`COc1cc(Cl)ccc1C(=O)Nc1ccc(-n2nc(C(F)(F)F)cc2C(F)(F)F)cc1` [Example 176, N-[4-[3,5-Bis(trifluoromethyl)-1H-pyrazol-1-yl]phenyl]-4-chloro-2-methoxybenzamide] registered a melting point of 178 to 180 °C. For the same compound, the inhibition at 1 µM in data set [1] worked out at 12%.

`O=C(Nc1ccc(-n2nc(C(F)(F)F)cc2C(F)(F)F)cc1)c1ccc(Cl)cc1O` [Example 220, N-[4-[3,5-bis(trifluoromethyl)-1H-pyrazol-1-yl]phenyl]-4-chloro-2-hydroxybenzamide] registered a melting point of 200 to 202 °C. For the same compound, in data set [1], the inhibition at 10 µM is 100% and half-maximal inhibition (IC50) required 4230 nM.

Regarding `N#Cc1cccc(C(=O)Nc2ccc(-n3nc(C(F)(F)F)cc3C(F)(F)F)nc2)c1` [Example 261, N-[2-[3,5-bis(trifluoromethyl)-1H-pyrazol-1-yl]-5-pyridinyl]-3-cyanobenzamide], the melting point was 206 to 208 °C. For the same compound, in data set [1], the inhibition at 1 µM is 37%.

On to `O=C(Nc1ccc(-n2nc(C3CCCO3)cc2C(F)(F)F)cc1)c1ccncc1F` (stereo not shown) [Example 345, 3-fluoro-N-(4-(3-tetrahydro-2-furanyl-5-(trifluoromethyl)-1H-pyrazol-1-yl)phenyl)isonicotinamide], for which the melting point was 116 to 118 °C. In data set [1], this compound had a 50% inhibitory concentration (IC50) of 273 nM.

For the compound `O=C(Nc1ccc(-n2nc(-c3ccoc3)cc2Cl)cc1)c1ccncc1F` [Example 356, N-(4-(5-chloro-3-(3-furyl)-1H-pyrazol-1-yl)phenyl)-3-fluoroisonicotinamide], the melting point was in the range of 165 to 166 °C. In addition, the IC50 in data set [1] is 247 nM.

Consider `O=C(Nc1ccc(-n2nc(C(F)(F)F)cc2C(F)(F)F)cc1)c1ccc(F)c(C(F)(F)F)c1` [Example 195, N-[4-[3,5-bis(trifluoromethyl)-1H-pyrazol-1-yl]phenyl]-4-fluoro-3-(trifluoromethyl)benzamide], for which the melting point fell in the range of 142 to 144 °C. Besides, the inhibition at 1 µM in data set [1] amounted to 22%.

`CC1(C(=O)Nc2ccc(-n3nc(C(F)(F)F)cc3C(F)(F)F)cc2)C=CCCC1` (stereo not shown) [Example 9, N-[4-[3,5-bis(trifluoromethyl)-1H-pyrazol-1-yl]phenyl]-1-methyl-2-cyclohexene-1-carboxamide] returned a melting point of 108 to 110 °C. The inhibition at 1 µM in data set [1] worked out at 35%.

In the case of `Cc1ccc(C(=O)Nc2ccc(-n3nc(C(F)(F)F)cc3C(F)(F)F)cc2)s1` [Example 44, N-[4-[3,5-bis(trifluoromethyl)-1H-pyrazol-1-yl]phenyl]-5-methyl-2-thiophenecarboxamide], the melting point is 200 to 202 °C. Besides, in data set [1], the inhibition at 1 µM was found to be 29%.

Turning to `Cn1cc(C(=O)Nc2ccc(-n3nc(C(F)(F)F)cc3C(F)(F)F)cc2)cn1` [Example 265, N-[4-[3,5-bis(trifluoromethyl)-1H-pyrazol-1-yl]phenyl]-1-methyl-1H-pyrazole-4-carboxamide], the melting point was in the range of 211 to 212 °C. Also, in data set [1], the inhibition at 10 µM was found to be 90% and the IC50 came out at 3810 nM.

Regarding `C=C(C)C(=O)Nc1ccc(-n2nc(C(F)(F)F)cc2C(F)(F)F)cc1` [Example 295, N-(4-(3,5-bis(trifluoromethyl)-1H-pyrazol-1-yl)phenyl)-2-methylacrylamide], the melting point lay in the range of 160 to 162 °C. For the same compound, in data set [1], it took 232 nM to reach half-maximal inhibition (IC50).

In turn, `N#Cc1cccc(C(=O)Nc2ccc(-n3nc(C(F)(F)F)cc3C(F)(F)F)cc2)c1` [Example 137, N-[4-[3,5-bis(trifluoromethyl)-1H-pyrazol-1-yl]phenyl]-3-cyanobenzamide] showed a melting point of 162 to 163 °C. In data set [1], the inhibition at 100 µM came to 98% and 120 nM corresponded to half-maximal inhibition (IC50).

For orientation: melting point means the temperature, or range, at which the solid turns liquid. By IC50 is commonly meant the concentration needed to halve the response being measured. Higher therefore signals weaker potency.

For the origin of these results see US20010044445A1, “AZOLE INHIBITORS OF CYTOKINE PRODUCTION” (priority 1999, published 2001).
